Results from patent US20160022708A1, “METHODS AND COMPOSITIONS FOR THE TREATMENT OF GLUTAMINE-ADDICTED CANCERS” (ST. JUDE CHILDREN'S RESEARCH HOSPITAL, priority 2013, published 2016).
Structures can show the parent of a compound that is named as a salt. Where two headings read alike, the source gives them in different places.

Legend:
[1] = test system: neuroblastoma and Ewing's sarcoma cell lines; assay: CyQuant viability assay, panel of NB and Ewing's sarcoma cell lines; format: cell-based; conditions: for single agent effect: more glutamine-addicted cell lines such as IMR32, Kelly, RD-ES and SK-ES-1; for effectiveness on cancer cell lines: broad ranges of drug concentrations; for efficacy as single agent in vitro: single agents
Protocol: To survey the effects of DON on neuroblastomas and Ewing's sarcomas, DON was tested on six neuroblastoma (SK-N-AS, SK-N-BE(2), SK-N-FI, IMR32, Kelly, and SH-SySy) and three Ewing's sarcoma cell lines (SK-N-MC, RD-ES and SK-ES-1) and a control immortalized foreskin fibroblast cell line (BJ). Using the CyQuant viability assay, the respective sensitivities of each cell line to DON were determined after 72 hrs of treatment in a universal media (EMEM, 10% FBS, 0.5 mM glutamine) containing physiological levels of glutamine and glucose. […] More strikingly, all three Ewing's sarcoma cell lines were especially sensitive to DON with an 80% loss in cell viability (FIG. 1B). […]
(§1) 6-diazo-5-oxo-L-norleucine (Sigma Aldrich, St. Louis, Mo.) and epigallocatechin-3-gallate (Sigma Aldrich, St. Louis, Mo.) were solubilized in water, aminooxyacetate (Sigma Aldrich, St. Louis, Mo.), obatoclax mesylate (Selleckchem,), and ABT-263 (Sellekchem) were dissolved in 100% dimethyl sulfoxide (DMSO). In a 96-well tissue culture plate, 5×10^4 cells were plated in 100 ul of media containing EMEM, 10% FBS and 0.5 mM glutamine per well. Four hours after plating drugs were diluted to a 2× concentration in plating media and added to wells. Plates were incubated for 72-hrs and then submitted to CyQuant Cell Direct Proliferation Assay (Life Technologies) according to manufacturer's instructions and read with a Synergy HT Multi-mode microplate reader (Biotek).

[2] = Tolerability in tumor-bearing mice (weight loss, length of treatment); format: in vivo
Protocol: (§2) DON's effects on NB and EWS tumors in vivo were assessed. Subcutaneous tumors for the neuroblastoma cell lines SK-N-AS and SK-N-BE(2) as well as the Ewing's Sarcoma cell lines SK-N-MC and SK-ES-1 were grown to at least 200 mm^3 and were then randomized into either DON or control treatment groups. Mice were then treated with 100 mg/kg of DON or water control twice a week by intraperitoneal (I.P.) injection, equivalent to a twice a week dose of 300 mg/m^2 in children. Previous work has shown that a dose as high as 520 mg/m^2 was safely achievable in children. […] To attempt to extend the course of treatment, mice either were treated with half the dose at 50 mg/kg twice a week or with a once weekly injection of 100 mg/kg (1×/wk). The effectiveness of the original drug regimen was compared to the two new treatment schedules using mice with subcutaneous tumors from the most DON-resistant (SK-N-FI) and the most DON-sensitive (SK-N-MC) cell line in vitro. This experiment would allow for the determination whether the in vitro data was predictive of differences in response to DON in vivo. Both of the new drug regimens allowed a significant extension in length of treatment from 11 days to greater than 24 days. However, only the 50 mg/kg dose was effective against both tumor types. […] In addition, the SK-N-BE2 and IMR32 neuroblastoma cell lines were tested at the 50 mg/kg dose in mice with subcutaneous tumors. The 50 mg/kg dose was effective against both tumor types (FIG. 7 A-C).
For subcutaneous tumor experiments, cells were injected into the hind flank of either 6-8 week old athymic (nu/nu) mice (Charles River) or into Rag2^−/−; gamma c^−/− mice (kindly provided by Dr. Shannon McKinney-Freeman). No difference in tumor growth kinetics was observed between different strains. SK-N-AS, SK-N-MC, and SK-ES-1 cells were injected at 2×10^6 cells per mouse in 100 μl total volume. […] Tumor size was measured by digital caliper, and tumor volume was calculated using the formula 1/2*(length*width^2). […]

IMR32 tumors = assay: Subcutaneous tumor growth; format: in vivo, mice; conditions: 50 mg/kg twice weekly I.P.
Protocol: as §2
(§3) For subcutaneous tumor experiments, cells were injected into the hind flank of either 6-8 week old athymic (nu/nu) mice (Charles River) or into Rag2^−/−; gamma c^−/− mice (kindly provided by Dr. Shannon McKinney-Freeman). No difference in tumor growth kinetics was observed between different strains. SK-N-AS, SK-N-MC, and SK-ES-1 cells were injected at 2×10^6 cells per mouse in 100 μl total volume. SK-N-BE(2) cells were injected in a 1:1 mix of cells and Matrigel (BD Biosciences) at a final concentration of 2×10^6 cells per mouse. Tumor size was measured by digital caliper, and tumor volume was calculated using the formula 1/2*(length*width^2). When tumors reached an average size of 200 mm^3 mice were randomized into treatment groups. On the day of treatment, mice were weighed then given an intraperitoneal (i.p.) injection of either 100 mg/kg DON, 50 mg/kg or water control. All animal experiments were performed in accordance with the guidelines established by IACUC.

SK-N-FI tumors = assay: Subcutaneous tumor growth; format: in vivo, mice; conditions: 50 mg/kg twice a week I.P.
Protocol: as §2, §3

SK-N-MC tumors = assay: Subcutaneous tumor growth; format: in vivo, mice
Protocol: as §2, §3

SK-N-BE(2) tumors [3] = assay: Subcutaneous tumor growth; format: in vivo, mice
Protocol: as §2, §3

SK-N-AS tumors [4] = assay: Subcutaneous tumor growth; format: in vivo, mice; conditions: 100 mg/kg twice a week I.P.
Protocol: as §2, §3

SK-ES-1 tumors = assay: Subcutaneous tumor growth; format: in vivo, mice; conditions: 100 mg/kg twice a week I.P.
Protocol: as §2, §3

SK-N-AS cells [5] = assay: Annexin / propidium iodide staining (FACS); format: cell-based; conditions: 100 μM DON 72 hrs
Protocol: (§4) To investigate the effects of DON on proliferation and cell death in vivo, additional NB tumor studies using SK-N-AS and SK-N-BE(2) cells were set up. Tumors in each cohort were allowed to grow to ˜1000 mm^3 before they underwent one round of DON treatment at 100 mg/kg of DON twice a week. On day 4, the second dose of DON was given 6-hrs prior and BrdU injected 2 hours prior to harvesting the tumors for histology (FIG. 3A).
(§5) To measure early apoptosis, cells were plated in EMEM media containing 0.5 mM L-glutamine, 10% FBS, and 1% Penicillin/Streptomycin, then treated+/−100 μM DON for 72 hours. Both adherent and floating cells in the media were collected at harvest, and 3×10^5 cells were then stained with Annexin-V-FITC antibody for 15 minutes at room temperature. Cells were then counterstained with propidium iodide (9.1 μM final concentration) and filtered through a 40 μm nylon mesh. Immediately after staining, samples were analyzed by the Flow Cytometry and Cell Sorting Shared Resource facility at St. Jude Children's Research Hospital.

SK-N-BE(2) cells [6] = assay: Annexin / propidium iodide staining (FACS); format: cell-based; conditions: 100 μM DON 72 hrs
Protocol: as §4, §5

SK-N-FI cells = assay: CyQuant viability assay; format: cell-based; conditions: DON 72 hrs; EMEM, 10% FBS, 0.5 mM glutamine
Protocol: (§6) To survey the effects of DON on neuroblastomas and Ewing's sarcomas, DON was tested on six neuroblastoma (SK-N-AS, SK-N-BE(2), SK-N-FI, IMR32, Kelly, and SH-SySy) and three Ewing's sarcoma cell lines (SK-N-MC, RD-ES and SK-ES-1) and a control immortalized foreskin fibroblast cell line (BJ). Using the CyQuant viability assay, the respective sensitivities of each cell line to DON were determined after 72 hrs of treatment in a universal media (EMEM, 10% FBS, 0.5 mM glutamine) containing physiological levels of glutamine and glucose. […] More strikingly, all three Ewing's sarcoma cell lines were especially sensitive to DON with an 80% loss in cell viability (FIG. 1B).
as §1, with “Four hours after plating drugs were diluted to a 2× concentration in plating media and added to wells.” left out

[7] = children, previous work; cited from earlier work
BJ foreskin fibroblasts = assay: CyQuant viability assay, control cell line; format: cell-based
Protocol: as §6, §1

SK-N-BE(2) tumors [8] = assay: IHC of BrdU and cleaved caspase-3 in tumors; format: in vivo, mice; conditions: ~1000 mm^3 tumors, 100 mg/kg DON day 1 and day 4
Protocol: as §4
(§7) For in vivo labeling of proliferating cells, mice with subcutaneous SK-N-AS or SK-N-BE(2) tumors (1000 mm^3) were treated with DON and injected with BrdU (BD Biosciences). Mice were given an intraperitoneal (i.p.) injection of 100 mg/kg DON on day 1 and again on day 4. Four hours after the second dose of DON, mice were injected i.p. with 150 μl of 10 mg/ml BrdU. Tumor tissue was harvested 2 hours after addition of BrdU and samples were fixed in 10% formalin. Paraffin-embedded tissue sections were then stained for BrdU incorporation by the St. Jude Veterinary Pathology Core.

SK-N-AS tumors [9] = assay: IHC of BrdU and cleaved caspase-3 in tumors; format: in vivo, mice; conditions: ~1000 mm^3 tumors, 100 mg/kg DON day 1 and day 4
Protocol: as §4, §7

[10] = test system: Ewing's sarcoma cell lines (SK-N-MC, RD-ES and SK-ES-1); assay: CyQuant viability assay, Ewing's sarcoma cell lines; format: cell-based; conditions: all three Ewing's sarcoma cell lines; DON 72 hrs
Protocol: as §6
as §1, with “Four hours after plating drugs were diluted to a 2× concentration in plating media and added to wells.” left out

SK-N-AS cells [11] = assay: Cell cycle analysis by BrdU labeling (FACS); format: cell-based; conditions: 100 μM DON 72 hrs
Protocol: as §4
(§8) In vitro cell cultures were pulse-labeled with 10 μM BrdU (BD Biosciences) for 90 minutes at 37° C., and then fixed and stained with Anti-BrdU-FITC antibody and 7-AAD (BD Biosciences, #559619), according to manufacturer's protocol. Stained samples were then analyzed by the Flow Cytometry and Cell Sorting Shared Resource facility at St. Jude Children's Research Hospital.

SK-N-BE(2) cells [12] = assay: Cell cycle analysis by BrdU labeling (FACS); format: cell-based; conditions: 100 μM DON 72 hrs
Protocol: as §4, §8

[13] = cited from earlier work
[14] = in vivo; cited from earlier work

NOCC(=O)O [AOA, aminooxyacetate]
single agent effect [1]: effective as single agents

epigallocatechin-3-gallate [EGCG]
single agent effect [1]: effective as single agents

[N-]=[N+]=CC(=O)CC[C@H](N)C(=O)O [DON, 6-diazo-5-oxo-L-norleucine]
length of treatment ([2]; 50 mg/kg twice a week or 100 mg/kg once weekly): greater than 24 days
weight loss in the mice ([2]; 100 mg/kg twice a week I.P.): caused weight loss
length of treatment ([2]; original regimen 100 mg/kg twice a week): 11 days
tumor growth (IMR32 tumors): effective
tumor growth (SK-N-FI tumors): effective
tumor growth (SK-N-MC tumors; 50 mg/kg twice a week I.P.): effective
tumor growth (SK-N-MC tumors; 100 mg/kg twice a week I.P.): dramatically blocked growth
tumor growth (SK-N-BE(2) tumors [3]; 50 mg/kg twice weekly I.P.): effective
tumor growth (SK-N-BE(2) tumors [3]; 100 mg/kg twice a week I.P.): greatly reduced growth
tumor growth (SK-N-AS tumors [4]): greatly reduced growth
tumor growth (SK-ES-1 tumors): dramatically blocked growth
cell death (SK-N-AS cells [5]): increase in cell death
cell death (SK-N-BE(2) cells [6]): increase in cell death
reduction in cell numbers (SK-N-FI cells): 20%
dose safely achievable [7]: ≤ 520 mg/m^2
toxicity to BJ cells (BJ foreskin fibroblasts; broad ranges of drug concentrations): non-toxic
sensitivity to DON ([1]; all cell lines except control BJ, 72 hrs): some sensitivity
effectiveness on cancer cell lines [1]: effective on all the cancer cell lines tested
loss in cell numbers ([1]; multiple cell lines, DON 72 hrs, 0.5 mM glutamine): greater than 60%
efficacy as single agent in vitro [1]: some efficacy
increase in caspase-3 cleavage (SK-N-BE(2) tumors [8]): greater than 2 fold
reduction in BrdU incorporation (SK-N-BE(2) tumors [8]): > 90%
caspase-3 cleavage (SK-N-AS tumors [9]): no difference
reduction in BrdU incorporation (SK-N-AS tumors [9]): > 90%
loss in cell viability [10]: 80%
entry into the S-phase of the cell cycle (SK-N-AS cells [11]): reduced entry into the S-phase
entry into the S-phase of the cell cycle (SK-N-BE(2) cells [12]): reduced entry into the S-phase

CC1(C)CCC(c2ccc(Cl)cc2)=C(CN2CCN(c3ccc(C(=O)NS(=O)(=O)c4ccc(N[C@H](CCN5CCOCC5)CSc5ccccc5)c(S(=O)(=O)C(F)(F)F)c4)cc3)CC2)C1 [ABT-263, navitoclax]
oral bioavailability ([13]; in vivo, po): orally bioavailable
major adverse side effect ([13]; in vivo): thrombocytopenia
safety and tolerability ([13]; in vivo): safe and well-tolerated
tolerability ([13]; phase I and phase II clinical trials in adults): well tolerated
toxicity to BJ cells (BJ foreskin fibroblasts): non-toxic
effectiveness on cancer cell lines [1]: effective on all the cancer cell lines tested
efficacy as single agent in vitro [1]: some efficacy

COC1=CC(c2cc3ccccc3[nH]2)=N/C1=C\c1[nH]c(C)cc1C [obatoclax mesylate]
efficacy as single agent in vitro [1]: some efficacy

CC1=C(/C=C/C(C)=C/C=C/C(C)=C/C(=O)Nc2ccc(O)cc2)C(C)(C)CCC1 [fenretinide, N-(4-hydroxyphenyl)retinamide]
bioavailability [14]: poor bioavailability
toxicity to BJ cells (BJ foreskin fibroblasts): non-toxic
effectiveness on cancer cell lines [1]: effective on all the cancer cell lines tested
